These are literature values, as cited in US20200316037A1, “COMPOSITIONS AND METHODS FOR TREATING NEOPLASIA” (THE ANGIOGENESIS FOUNDATION, priority 2017, published 2020).

Read-outs that look alike come from different tables or passages of the source.

For data set [1] the following is noted: for Undesirable Local Reactions (combined stinging, burning, itching, or irritation/dermatitis/rash): monotherapy at normal concentration and standard dose frequency; for Undesirable Local Reactions (combined itching, burning, bleeding, stinging, pain/soreness, tenderness, irritation): monotherapy.
Data set [2] relates to superficial Basal Cell Carcinoma (sBCC). To be noted: two double-blind vehicle-controlled studies; 5x/week x 6 weeks.
In data set [3] the test system is BCC. To be noted: imiquimod open-label clinical study N=162.

Consider `C=C1/C(=C\C=C2/CCC[C@]3(C)[C@@H]([C@H](C)/C=C/[C@@H](O)C4CC4)CC[C@@H]23)C[C@@H](O)C[C@@H]1O` [Calcipotriene 0.005%, Calcipotriene], for which the “Undesirable Local Reactions (combined stinging, burning, itching, or irritation/dermatitis/rash)” value in data set [1] is 13-45%.
With `CCCCC(=O)O[C@]1(C(=O)CO)CC[C@H]2[C@@H]3CCC4=CC(=O)CC[C@]4(C)[C@H]3[C@@H](O)C[C@@]21C` [Hydrocortisone valerate 0.2%, Hydrocortisone valerate], the “Undesirable Local Reactions (combined stinging, burning, itching, or irritation/dermatitis/rash)” value in data set [1] is recorded as 7%.
Regarding `CC(C)Cn1cnc2c(N)nc3ccccc3c21` [Imiquimod 5%, Imiquimod], in data set [2], the sBCC clearance was 75%. Further, the “Recurrence Rate of BCC” value is recorded as 10% in data set [3] (Month 0); 13% in data set [3] (Month 3); 15% in data set [3] (Month 6); 16% in data set [3] (Month 12); 21% in data set [3] (Month 24); 0% in data set [3] (Post-treatment). In addition, the “Undesirable Local Reactions (combined itching, burning, bleeding, stinging, pain/soreness, tenderness, irritation)” value is on record as 39% in data set [1] (2x/week study), 63% in data set [1] (3x/week study) and 28% in data set [1] (5x/week study). For the same compound, the Incidence of inflammation in data set [1] (monotherapy per package label, imiquimod clinical studies) was no more than 97%.
Turning to `CC1=C(/C=C/C(C)=C/C=C/C(C)=C/C(=O)O)C(C)(C)CCC1` [Tretinoin 0.1%, Tretinoin], the “Undesirable Local Reactions (combined stinging, burning, itching, or irritation/dermatitis/rash)” value in data set [1] was 15%.
